pIC50: −log10 of the molar value.
System: 832693-133-R-J1-PDC multi-cell spheroids, viability
Assay: Anticancer human tumor 832693-133-R-J1-PDC patient-derived head and neck squamous carcinoma cell line growth inhibition [IpAb]
Conditions: for pIC50: curve of first compound; for viability, T/C: stronger effect = lower value
How it was run: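 Spheroids of 60% malignant cells, 25% HUVEC and 15% MSC were exposed to targeted agents combined with ipatasertib or abemaciclib. Doses started at or near clinical Cmax (10 microM when unknown) and fell in half-log steps.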

[1] = second compound 0.01 µM, first compound 0.0316 µM
[2] = second compound 0.01 µM, first compound 0.1 µM
[3] = second compound 0.01 µM, first compound 0.316 µM
[4] = second compound 0.01 µM, first compound 1 µM
[5] = second compound 0.01 µM, first compound 3.16 µM
[6] = second compound 0.01 µM, first compound 10 µM
[7] = second compound 0.0316 µM, first compound 0.0316 µM
[8] = second compound 0.0316 µM, first compound 0.1 µM
[9] = second compound 0.0316 µM, first compound 0.316 µM
[10] = second compound 0.0316 µM, first compound 1 µM
[11] = second compound 0.0316 µM, first compound 3.16 µM
[12] = second compound 0.0316 µM, first compound 10 µM
[13] = second compound 0.1 µM, first compound 0.0316 µM
[14] = second compound 0.1 µM, first compound 0.1 µM
[15] = second compound 0.1 µM, first compound 0.316 µM
[16] = second compound 0.1 µM, first compound 1 µM
[17] = second compound 0.1 µM, first compound 3.16 µM
[18] = second compound 0.1 µM, first compound 10 µM
[19] = second compound 0.316 µM, first compound 0.0316 µM
[20] = second compound 0.316 µM, first compound 0.1 µM
[21] = second compound 0.316 µM, first compound 0.316 µM
[22] = second compound 0.316 µM, first compound 1 µM
[23] = second compound 0.316 µM, first compound 3.16 µM
[24] = second compound 0.316 µM, first compound 10 µM
[25] = second compound 1 µM, first compound 0.0316 µM
[26] = second compound 1 µM, first compound 0.1 µM
[27] = second compound 1 µM, first compound 0.316 µM
[28] = second compound 1 µM, first compound 1 µM
[29] = second compound 1 µM, first compound 3.16 µM
[30] = second compound 1 µM, first compound 10 µM
[31] = second compound 0.01 µM, first compound 0.00949 µM
[32] = second compound 0.01 µM, first compound 0.03 µM
[33] = second compound 0.01 µM, first compound 0.0949 µM
[34] = second compound 0.01 µM, first compound 0.3 µM
[35] = second compound 0.0316 µM, first compound 0.00949 µM
[36] = second compound 0.0316 µM, first compound 0.03 µM
[37] = second compound 0.0316 µM, first compound 0.0949 µM
[38] = second compound 0.0316 µM, first compound 0.3 µM
[39] = second compound 0.1 µM, first compound 0.00949 µM
[40] = second compound 0.1 µM, first compound 0.03 µM
[41] = second compound 0.1 µM, first compound 0.0949 µM
[42] = second compound 0.1 µM, first compound 0.3 µM
[43] = second compound 0.316 µM, first compound 0.00949 µM
[44] = second compound 0.316 µM, first compound 0.03 µM
[45] = second compound 0.316 µM, first compound 0.0949 µM
[46] = second compound 0.316 µM, first compound 0.3 µM
[47] = second compound 1 µM, first compound 0.00949 µM
[48] = second compound 1 µM, first compound 0.03 µM
[49] = second compound 1 µM, first compound 0.0949 µM
[50] = second compound 1 µM, first compound 0.3 µM
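Also: spheroids exposed to the drugs for one week before the viability readout.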
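For viability, T/C in this document: 100% = DMSO vehicle control wells.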

C=CC(=O)N1CCN(c2nc(=O)n(-c3c(C)ccnc3C(C)C)c3nc(-c4c(O)cccc4F)c(F)cc23)C(C)C1 (stereo not given) + CCN1CCN(Cc2ccc(Nc3ncc(F)c(-c4cc(F)c5nc(C)n(C(C)C)c5c4)n3)nc2)CC1
pIC50 (second compound 0.01 µM): < 5.00 | pIC50 (second compound 0.0316 µM): < 5.00 | pIC50 (second compound 0.1 µM): < 5.00 | pIC50 (second compound 0.316 µM): < 5.00 | pIC50 (second compound 1 µM): < 5.00 | viability, T/C [1]: 96.7% | viability, T/C [2]: 104% | viability, T/C [3]: 105% | viability, T/C [4]: 109% | viability, T/C [5]: 117% | viability, T/C [6]: 104% | viability, T/C [7]: 89.5% | viability, T/C [8]: 89.6% | viability, T/C [9]: 90.5% | viability, T/C [10]: 92.2% | viability, T/C [11]: 115% | viability, T/C [12]: 95% | viability, T/C [13]: 68.8% | viability, T/C [14]: 78.8% | viability, T/C [15]: 73.3% | viability, T/C [16]: 82.9% | viability, T/C [17]: 101% | viability, T/C [18]: 86.3% | viability, T/C [19]: 58.3% | viability, T/C [20]: 59.3% | viability, T/C [21]: 64% | viability, T/C [22]: 64.9% | viability, T/C [23]: 77.5% | viability, T/C [24]: 84.2% | viability, T/C [25]: 53.8% | viability, T/C [26]: 58.9% | viability, T/C [27]: 65.5% | viability, T/C [28]: 73.7% | viability, T/C [29]: 82.4% | viability, T/C [30]: 98.4%

CC(=O)c1c(C)c2cnc(Nc3ccc(N4CCNCC4)cn3)nc2n(C2CCCC2)c1=O + CCN1CCN(Cc2ccc(Nc3ncc(F)c(-c4cc(F)c5nc(C)n(C(C)C)c5c4)n3)nc2)CC1
pIC50 (second compound 0.01 µM): < 6.52 | pIC50 (second compound 0.0316 µM): < 6.52 | pIC50 (second compound 0.1 µM): < 6.52 | pIC50 (second compound 0.316 µM): < 6.52 | pIC50 (second compound 1 µM): < 6.52 | viability, T/C (second compound 0.01 µM, first compound 0.000949 µM): 101% | viability, T/C (second compound 0.01 µM, first compound 0.003 µM): 83.8% | viability, T/C [31]: 75.6% | viability, T/C [32]: 71.8% | viability, T/C [33]: 58.4% | viability, T/C [34]: 60% | viability, T/C (second compound 0.0316 µM, first compound 0.000949 µM): 80.1% | viability, T/C (second compound 0.0316 µM, first compound 0.003 µM): 83.4% | viability, T/C [35]: 71.1% | viability, T/C [36]: 58.4% | viability, T/C [37]: 56.7% | viability, T/C [38]: 54.1% | viability, T/C (second compound 0.1 µM, first compound 0.000949 µM): 57.1% | viability, T/C (second compound 0.1 µM, first compound 0.003 µM): 62.2% | viability, T/C [39]: 61.4% | viability, T/C [40]: 52.4% | viability, T/C [41]: 54.3% | viability, T/C [42]: 56% | viability, T/C (second compound 0.316 µM, first compound 0.000949 µM): 54% | viability, T/C (second compound 0.316 µM, first compound 0.003 µM): 53.3% | viability, T/C [43]: 55.3% | viability, T/C [44]: 61.4% | viability, T/C [45]: 55.2% | viability, T/C [46]: 60.4% | viability, T/C (second compound 1 µM, first compound 0.000949 µM): 67.8% | viability, T/C (second compound 1 µM, first compound 0.003 µM): 61% | viability, T/C [47]: 68.3% | viability, T/C [48]: 64.8% | viability, T/C [49]: 65.6% | viability, T/C [50]: 57.2%

CC(C)(C)c1cnc(CSc2cnc(NC(=O)C3CCNCC3)s2)o1 + CCN1CCN(Cc2ccc(Nc3ncc(F)c(-c4cc(F)c5nc(C)n(C(C)C)c5c4)n3)nc2)CC1
pIC50 (second compound 0.01 µM): 6.24 | pIC50 (second compound 0.0316 µM): 6.65 | pIC50 (second compound 0.1 µM): 6.79 | pIC50 (second compound 0.316 µM): 6.83 | pIC50 (second compound 1 µM): 6.87 | viability, T/C [31]: 107% | viability, T/C [32]: 125% | viability, T/C [33]: 157% | viability, T/C [34]: 114% | viability, T/C (second compound 0.01 µM, first compound 0.949 µM): 0.93% | viability, T/C (second compound 0.01 µM, first compound 3 µM): 1.32% | viability, T/C [35]: 97.8% | viability, T/C [36]: 112% | viability, T/C [37]: 133% | viability, T/C [38]: 27.8% | viability, T/C (second compound 0.0316 µM, first compound 0.949 µM): 0.9% | viability, T/C (second compound 0.0316 µM, first compound 3 µM): 1.39% | viability, T/C [39]: 73.8% | viability, T/C [40]: 93.5% | viability, T/C [41]: 104% | viability, T/C [42]: 6.06% | viability, T/C (second compound 0.1 µM, first compound 0.949 µM): 0.75% | viability, T/C (second compound 0.1 µM, first compound 3 µM): 1.11% | viability, T/C [43]: 66.7% | viability, T/C [44]: 77.5% | viability, T/C [45]: 100% | viability, T/C [46]: 1.34% | viability, T/C (second compound 0.316 µM, first compound 0.949 µM): 1.19% | viability, T/C (second compound 0.316 µM, first compound 3 µM): 1.26% | viability, T/C [47]: 67.9% | viability, T/C [48]: 81.3% | viability, T/C [49]: 70.7% | viability, T/C [50]: 1.74% | viability, T/C (second compound 1 µM, first compound 0.949 µM): 1.59% | viability, T/C (second compound 1 µM, first compound 3 µM): 1.53%

Cn1nccc1Nc1nccc(-c2ccn(C(CO)c3ccc(Cl)c(F)c3)c(=O)c2)n1 (stereo not given) + CCN1CCN(Cc2ccc(Nc3ncc(F)c(-c4cc(F)c5nc(C)n(C(C)C)c5c4)n3)nc2)CC1
pIC50 (second compound 0.01 µM): 5.94 | pIC50 (second compound 0.0316 µM): 6.07 | pIC50 (second compound 0.1 µM): 6.35 | pIC50 (second compound 0.316 µM): 6.21 | pIC50 (second compound 1 µM): 5.27 | viability, T/C [1]: 87.8% | viability, T/C [2]: 83.6% | viability, T/C [3]: 67.6% | viability, T/C [4]: 55.9% | viability, T/C [5]: 31.9% | viability, T/C [6]: 30.3% | viability, T/C [7]: 78% | viability, T/C [8]: 68.1% | viability, T/C [9]: 61.2% | viability, T/C [10]: 52.7% | viability, T/C [11]: 31% | viability, T/C [12]: 34.2% | viability, T/C [13]: 70.7% | viability, T/C [14]: 59.5% | viability, T/C [15]: 53.7% | viability, T/C [16]: 47.2% | viability, T/C [17]: 27.1% | viability, T/C [18]: 32.3% | viability, T/C [19]: 68.7% | viability, T/C [20]: 59.5% | viability, T/C [21]: 53.3% | viability, T/C [22]: 50.5% | viability, T/C [23]: 36.8% | viability, T/C [24]: 31.9% | viability, T/C [25]: 74.9% | viability, T/C [26]: 82.7% | viability, T/C [27]: 63.6% | viability, T/C [28]: 62.7% | viability, T/C [29]: 57.8% | viability, T/C [30]: 43.2%
